Data reported in CN115227715A, “一种用于治疗癌症的联合用药物和药物组合物” (priority 2021, dated 2022).

How the values were obtained:
Cal-27 cells [1] = test: CX-4945-induced vacuolization, phase-contrast microscopy (Experimental Example 1, Fig. 1a); assay type: cell-based; conditions: 20μM CX-4945, 12h
HSC-4 cells = test: as above; assay type: cell-based; conditions: 20μM CX-4945, 12h
HSC-3 cells = test: as above; assay type: cell-based; conditions: 40μM CX-4945, 12h
UM1 cells = test: as above; assay type: cell-based; conditions: 40μM CX-4945, 12h
Cal-27 cells [2] = test: Macropinocytosis marker Dextran AF488 uptake and organelle probe co-localization, confocal microscopy (Experimental Example 1, Fig. 1b-1e); assay type: cell-based
[3] = system: cholangiocarcinoma cells (胆管癌细胞); conditions: cited from earlier work
[4] = system: non-small cell lung cancer cells (非小细胞肺癌细胞); conditions: cited from earlier work
[5] = system: colorectal cancer cells (结直肠癌细胞); conditions: cited from earlier work
CK2 = CK2 (Homo sapiens, UniProt P68400); conditions: cited from earlier work
CK2, sequence (P68400 whole entry): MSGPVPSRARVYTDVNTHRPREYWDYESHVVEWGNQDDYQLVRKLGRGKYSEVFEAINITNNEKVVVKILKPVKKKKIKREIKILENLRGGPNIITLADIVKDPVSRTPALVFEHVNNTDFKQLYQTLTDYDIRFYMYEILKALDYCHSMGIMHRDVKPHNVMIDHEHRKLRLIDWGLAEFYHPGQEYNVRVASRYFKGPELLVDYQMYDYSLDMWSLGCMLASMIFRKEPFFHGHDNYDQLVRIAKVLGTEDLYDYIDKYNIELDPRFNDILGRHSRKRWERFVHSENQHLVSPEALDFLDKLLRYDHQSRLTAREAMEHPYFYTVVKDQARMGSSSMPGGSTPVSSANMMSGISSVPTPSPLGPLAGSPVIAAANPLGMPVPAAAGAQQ

Structure (SMILES): O=C(O)c1ccc2c(c1)nc(Nc1cccc(Cl)c1)c1ccncc12 [CX-4945]
- vacuole formation (Cal-27 cells [1]): 均产生了空泡
- vacuole formation (HSC-4 cells): 均产生了空泡
- vacuole formation (HSC-3 cells): 均产生了空泡
- vacuole formation (UM1 cells): 均产生了空泡
- Dextran AF488 uptake in vacuoles (Cal-27 cells [2]; 10μM CX-4945, 0.5mg/mL Dextran AF488, 12h): 大多数空泡内都摄入了大量的Dextran AF488,呈现Dextran AF488阳性
- co-localization of Dextran AF488-positive vacuoles with endoplasmic reticulum (Cal-27 cells [2]; 10μM CX-4945, 0.5mg/mL Dextran AF488, ER-tracker, 12h): 不与内质网共定位
- co-localization of Dextran AF488-positive vacuoles with lysosomes (Cal-27 cells [2]; 10μM CX-4945, 0.5mg/mL Dextran AF488, Lyso-tracker, 12h): 有一部分与溶酶体共定位
- co-localization of Dextran AF488-positive vacuoles with mitochondria (Cal-27 cells [2]; 10μM CX-4945, 0.5mg/mL Dextran AF488, Mito-tracker, 12h): 不与线粒体共定位
- induction of macropinocytosis [3]: 可诱导巨胞饮的发生
- induction of macropinocytosis [4]: 可诱导巨胞饮的发生
- induction of macropinocytosis [5]: 可诱导巨胞饮的发生
- selectivity as CK2 inhibitor (CK2): 高度选择性
